pIC50: −log10 of the molar value. Activity calls are given as the source filed them. No cut-off for these calls is given here.
Columns and labels:
[1] = tested on: BV-2; assay: Neuroprotective activity against LPS-induced neuronal damage in mouse BV-2 cells assessed as increase in cell viability at 1 uM preincubated with compound for 1 hrs followed by LPS addition and measured after 24 hrs by Muse cell analyzer; assay type: functional, cell-based; conditions: time 25.0 hrs
[2] = tested on: BV-2; assay: Antioxidant activity in LPS-induced mouse BV-2 cells assessed as reduction in ROS production at 1 uM preincubated with compound for 1 hrs followed by LPS addition and measured after 24 hrs by Muse cell analyzer relative to control; assay type: functional; design: scale not given: the % may be the effect or the level left
[3] = biological target: T1, Acetylcholinesterase (Rattus norvegicus, UniProt P37136); assay: Inhibition of wistar rat brain AChE using acetylthiocholine iodide as substrate preincubated for 10 mins followed by substrate addition and measured after 5 mins by DTNB reagent based spectrophotometric Ellman's method
T1 sequence (P37136 whole entry): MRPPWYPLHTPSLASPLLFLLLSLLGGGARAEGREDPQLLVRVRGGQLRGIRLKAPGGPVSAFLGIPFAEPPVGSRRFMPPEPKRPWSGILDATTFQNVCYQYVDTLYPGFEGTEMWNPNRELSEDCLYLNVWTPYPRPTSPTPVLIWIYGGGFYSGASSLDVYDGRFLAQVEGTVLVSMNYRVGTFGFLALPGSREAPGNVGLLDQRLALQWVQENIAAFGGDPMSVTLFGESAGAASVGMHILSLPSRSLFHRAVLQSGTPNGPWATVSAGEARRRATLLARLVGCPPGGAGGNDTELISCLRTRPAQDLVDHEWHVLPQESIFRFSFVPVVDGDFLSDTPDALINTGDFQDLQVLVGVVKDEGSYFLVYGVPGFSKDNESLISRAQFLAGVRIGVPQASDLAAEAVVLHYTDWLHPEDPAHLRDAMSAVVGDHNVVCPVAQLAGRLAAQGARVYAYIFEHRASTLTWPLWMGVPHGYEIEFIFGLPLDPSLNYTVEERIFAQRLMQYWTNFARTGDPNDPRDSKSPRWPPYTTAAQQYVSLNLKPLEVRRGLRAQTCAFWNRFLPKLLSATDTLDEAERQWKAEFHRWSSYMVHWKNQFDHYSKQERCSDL

[4] = tested on: BV-2; assay: Neuroprotective activity against LPS-induced neuronal damage in mouse BV-2 cells assessed as cell viability at 1 uM preincubated with compound for 1 hrs followed by LPS addition and measured after 24 hrs by Muse cell analyzer (reference value: 79.2 +/- 1.1 %); assay type: functional; conditions: time 25 hrs, read-out: Activity
[5] = tested on: Caenorhabditis elegans; assay: Anti-alzheimer activity in amyloid-beta aggregation induced Caenorhabditis elegans GMC101 assessed as improvement in displacement per bend of worm at 10 uM administered from day 4 of adulthood and measured on day 7; assay type: functional, organism-based; conditions: time 4.0 day
[6] = tested on: A549; assay: Induction of autophagy in human A549 cells assessed as increase in LC3-II level at >3 uM measured after 24 hrs by Western blotting analysis; assay type: functional, cell-based
[7] = tested on: Caenorhabditis elegans; assay: Anti-alzheimer activity in amyloid-beta aggregation induced Caenorhabditis elegans GMC101 assessed as improvement in speed of worm movement at 10 uM administered from day 4 of adulthood and measured on day 7; assay type: functional, organism-based; conditions: time 4.0 day
[8] = biological target: Amyloid-beta precursor protein (Homo sapiens) (UniProt P05067); assay: Inhibition of amyloid beta (1 to 42) (unknown origin) self aggregation at 10 uM preincubated with compound for 24 hrs followed by compound washout and measured after 24 hrs by ThT fluorescence based spectrophotometric analysis
Sequence of Amyloid-beta precursor protein (Homo sapiens) (P05067 whole entry): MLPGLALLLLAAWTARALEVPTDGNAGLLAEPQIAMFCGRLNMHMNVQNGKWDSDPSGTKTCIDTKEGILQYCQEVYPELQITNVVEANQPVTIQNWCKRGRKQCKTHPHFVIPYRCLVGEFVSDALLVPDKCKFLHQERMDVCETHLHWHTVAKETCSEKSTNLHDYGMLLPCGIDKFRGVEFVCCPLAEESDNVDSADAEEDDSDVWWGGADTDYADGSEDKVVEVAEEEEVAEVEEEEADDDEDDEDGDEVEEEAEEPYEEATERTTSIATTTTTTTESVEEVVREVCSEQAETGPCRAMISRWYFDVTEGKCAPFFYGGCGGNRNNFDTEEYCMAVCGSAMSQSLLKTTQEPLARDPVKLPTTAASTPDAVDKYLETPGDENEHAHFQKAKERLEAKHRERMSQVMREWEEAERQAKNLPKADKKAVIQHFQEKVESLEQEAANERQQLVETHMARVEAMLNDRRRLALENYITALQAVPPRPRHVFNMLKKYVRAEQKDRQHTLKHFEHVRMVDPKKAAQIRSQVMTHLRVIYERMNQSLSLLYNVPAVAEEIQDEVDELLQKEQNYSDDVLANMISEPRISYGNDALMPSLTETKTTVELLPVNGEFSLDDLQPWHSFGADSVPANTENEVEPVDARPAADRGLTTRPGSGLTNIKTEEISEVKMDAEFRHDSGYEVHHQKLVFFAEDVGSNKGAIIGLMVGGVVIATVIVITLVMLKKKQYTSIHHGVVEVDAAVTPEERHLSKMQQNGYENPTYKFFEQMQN

[9] = tested on: A549; assay: Induction of autophagy in human A549 cells transfected with LC3-GFP plasmid assessed as increase in number of LC3 puncta at >3 uM measured after 24 hrs by high-content confocal microscopic analysis; assay type: functional, cell-based
[10] = tested on: Caenorhabditis elegans; assay: Anti-alzheimer activity in amyloid-beta aggregation induced Caenorhabditis elegans GMC101 assessed as increase in worm motility at 10 uM administered from day 4 of adulthood and measured on day 5 to 7; assay type: functional, organism-based; conditions: time 4.0 day
[11] = Neuroprotective activity against LPS/TNF-alpha-induced damage in human neuronal like cells assessed as restoration of cell function at 10 uM preincubated with compounds for 72 hrs followed by compound washout and measured after 16 hrs of LPS/TNF-alpha addition by MTS assay relative to control; assay type: functional
[12] = Induction of H2S release in PBS at pH 7.4 assessed as H2S concentration at 1 mM measured after 30 mins in presence of L-cysteine by Apollo-4000 free radical analyzer; assay type: functional
[13] = tested on: A549; assay: Induction of autophagy in human A549 cells assessed as decrease in p62 level at >3 uM measured after 24 hrs by Western blotting analysis relative to control; assay type: functional; design: scale not given: the % may be the effect or the level left
[14] = tested on: Caenorhabditis elegans; assay: Anti-alzheimer activity in amyloid-beta aggregation induced Caenorhabditis elegans GMC101 assessed as increase in worm fitness at 10 uM administered from day 4 of adulthood and measured on day 7 relative to control; assay type: functional; conditions: time 4 day
[15] = tested on: A549; assay: Cytotoxicity against human A549 cells transfected with LC3-GFP plasmid assessed as decrease in cell number upto 10 uM; assay type: toxicity, cell-based; conditions: a549, 10 µM
[16] = tested on: Neuronal like cell; assay: Neuroprotective activity against LPS/TNF-alpha-induced damage in human neuronal like cells assessed as increase in cell proliferation at 10 uM preincubated with compounds for 24 hrs followed by compound washout and measured after 16 hrs of LPS/TNF-alpha addition by MTS assay; assay type: functional, cell-based
[17] = tested on: Neuronal like cell; assay: Antioxidant activity in human neuronal like cells assessed as reduction in LPS/TNF-alpha-induced ROS production at 10 uM preincubated with compound for 24 hrs followed by compound washout and measured after 16 hrs of LPS/TNF-alpha addition by H2DCF-DA based fluorescence analysis; assay type: functional

Q: With `CCN(C)C(=O)Oc1cccc(CCN=C=S)c1` as the compound, how does the Activity [1] read?
A: inactive

Q: What about the Activity ([2]; time 25 hrs) of the same compound?
A: 10%

Q: What about the pIC50 [3] of the same compound?
A: 5.86

Q: For `[Na+].[SH-]` [SODIUM HYDROSULFIDE], which viability at 1 µM [4] is on record?
A: 87.2%

Q: What about the Activity ([2]; time 25 hrs) of the same compound?
A: 27%

Q: Which viability at 1 µM [4] does the source give for `CCN(C)C(=O)Oc1cccc(CN=C=S)c1` here?
A: 85.3%

Q: And the Activity ([2]; time 25 hrs)?
A: 10%

Q: What about the pIC50 [3] of the same compound?
A: 5.66

Q: Which results are given for `CCN(C)C(=O)Oc1cccc(C(N)=S)c1`?
A: Activity [5]: Active; viability at 1 µM [4]: 85.7%; Activity [6]: Active; Activity [7]: Active; Slight Effect Observed; inhibition [8]: Active; Comparable Activity With Nahs Observed; Activity [9]: Active; Activity ([2]; time 25 hrs): 23%; Activity [10]: Active; Activity [11]: 100%; Activity [12]: 10 µM; Activity [13]: ~50%; Activity [14]: 10.5%; Activity [15]: Non-toxic; Activity [16]: Active; pIC50 [3]: 6.36; Activity [17]: Active

Q: What does the source list for `CCN(C)C(=O)Oc1cccc([C@H](C)N(C)C)c1` [RIVASTIGMINE]?
A: viability at 1 µM [4]: 84.1%; Activity ([2]; time 25 hrs): ~10%

Q: Which Activity [1] does the source give for `CCN(C)C(=O)Oc1cccc(NC(=O)COc2ccc(-c3cc(=S)ss3)cc2)c1` here?
A: inactive

Q: What about the Activity ([2]; time 25.0 hrs) of the same compound?
A: inactive

Q: What about the pIC50 [3] of the same compound?
A: 6.39

Q: With `CCN(C)C(=O)Oc1cccc(NC(=O)c2ccc(N=C=S)cc2)c1` as the compound, how does the Activity [1] read?
A: inactive

Q: And the Activity ([2]; time 25 hrs)?
A: 10%

Q: What about the pIC50 [3] of the same compound?
A: 6.29

Q: Which results are given for `CCN(C)C(=O)Oc1cccc(N=C=S)c1`?
A: viability at 1 µM [4]: 85.5%; Activity ([2]; time 25 hrs): 10%; pIC50 [3]: 6.06

Source: ChEMBL document CHEMBL6087455 (Eur J Med Chem, 2025)
